This note sets out measurements from patent US11401278B2, “Macrocyclic indole derivatives” (The Broad Institute, Inc., priority 2017, dated 2022).

Values joined by “and” are separate entries in the source; they are usually repeats but may differ in a detail not shown here. Equal entries are not always repeated. Structures can show the parent of a compound that is named as a salt. Where two headings read alike, the source gives them in different places.

One data set deals with AMO-1. The experiment in a line: Antiproliferation assay (Assay 7), AMO-1. The format is cell-based. The conditions noted are these: CellTiter-Glo, several values per example. The method in brief: (§1)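 Cells were treated with compound for 72 hours at 37° C in a humidified incubator, and viability was then read by CellTiter-Glo luminescence. A parallel reference plate was read at time zero (day 0) in the same way for baseline determination.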
Background: ATP-based viability assays read luminescence as a measure of living cells.

The subject of data set [1] is SUDHL10. The experiment in a line: Induction of cytotoxicity (Assay 6), SUDHL10. The conditions noted are these: read-out: Cytotox SUDHL10 [M] (median) IC50, CellTiter-Glo, 5 hours, SUDHL10.
Data set [2] has as its system SUDHL5. The experiment in a line: Antiproliferation assay (Assay 7), SUDHL5. The format is cell-based. The conditions noted are these: CellTiter-Glo, median, read-out: Antiproli SUDHL5 [M] (median) IC50. Summed up: as §1
The test system of data set [3] is SUDHL10. The data set is described as follows: Induction of caspase-3/7 activity (Assay 4), SUDHL10. The format is cell-based. The conditions noted are these: caspase-3/7 induction, median. The method in brief: (§2)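 Caspase-3/7 activity measured by Caspase-Glo 3/7 luminescence in DLBCL cells after 3 h compound treatment at 37 °C. Medium-only background subtracted. EC50 fitted with C0 fixed at 1 and top set to the reference compound's plateau/max induction.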

For data set [4], the system named is SUDHL5. The data set is described as follows: Induction of caspase-3/7 activity (Assay 4), SUDHL5. The format is cell-based. The conditions noted are these: caspase-3/7 induction, median. The method in brief:
as §2

A further data set relates to HMC-1-8. The data set is described as follows: Antiproliferation assay (Assay 7), HMC-1-8. The format is cell-based. The conditions noted are these: CellTiter-Glo, several values per example, read-out: Antiproli HMC-1-8 [M] IC50. Summed up: as §1
A further data set concerns the target BCL-2 (Homo sapiens (Human), UniProt P10415). The experiment in a line: Protein-protein interaction assay BCL-2/Bad BH3 peptide (BCL-2 assay, TR-FRET). The format is binding. The conditions noted are these: His-BCL-2 / Bad BH3 peptide, median. The method in brief: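 His-BCL-2 (1-211, E. coli) at 1 nM preincubated 10 min at 22 °C with compound (11 concentrations, 0.1 nM-20 μM, duplicates), then 1 nM biotinylated Bad BH3 peptide added. After 1 h at 22 °C plus overnight at 4 °C, TR-FRET 665/620 ratio normalised to DMSO and no-BCL-2 controls, IC50 from 4-parameter fit.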
In general terms: TR-FRET usually uses a lanthanide donor and a delayed reading to cut background.

The test system of a further data set is MV-4-11. The data set is described as follows: Antiproliferation assay (Assay 7), MV-4-11. The format is cell-based. The conditions noted are these: CellTiter-Glo, 72 hours, several values per example, listed as 08, read-out: Antiproli MV-4-11 [M] IC50. The method in brief: as §1
Setting [5] is: 72 hours, read-out: Antiproli AMO-1 [M] IC50.

BCL-2, sequence (P10415 other isoform, or with tags, fused parts or gaps): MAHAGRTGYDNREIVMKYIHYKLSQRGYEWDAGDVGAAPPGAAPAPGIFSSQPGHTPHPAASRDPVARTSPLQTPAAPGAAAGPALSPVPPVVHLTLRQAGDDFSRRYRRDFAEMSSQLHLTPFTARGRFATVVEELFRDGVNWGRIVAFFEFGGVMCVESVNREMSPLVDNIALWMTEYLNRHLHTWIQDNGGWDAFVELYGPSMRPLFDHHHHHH

As to `Cc1c2c(nn1C)CN(C1CC1)S(=O)(=O)CCCn1c(C(=O)O)c(CCCOc3cccc4cc(F)ccc34)c3ccc(Cl)c-2c31` (single isomer, unassigned; enantiomer 2) [Example 43, (+)-4-chloro-14-cyclopropyl-7-{3-[(6-fluoro-1-naphthyl)oxy]propyl}-2,3-dimethyl-11,12,14,15-tetrahydro-2H,10H-pyrazolo[3′,4′:4,5][1,2,8]thiadiazacycloundecino[6,7,8-hi]indole-8-carboxylic acid 13,13-dioxide N-diethylamine salt (Enantiomer 2)], the 50% inhibitory concentration (IC50) (usually the concentration needed to halve the response being measured) with AMO-1 (setting [5]) was 1.1e-05 M; with SUDHL10 [1] it was 1.3e-05 M; in the data set with SUDHL5 [2] (72 hours), 7e-06 M; in the data set with HMC-1-8 (72 hours), more than 3.3e-05 M; on BCL-2 it was more than 20 µM. Besides, the EC50 (usually the concentration giving half of the maximal effect) is 9.4 µM in the data set with SUDHL10 [3] (3 hours) and 6.1 µM in the data set with SUDHL5 [4] (3 hours).

On to `Cc1c2c(nn1C)CN(C)S(=O)(=O)CCCn1c(C(=O)O)c(CCCOc3cccc4cc(F)ccc34)c3ccc(F)c-2c31` (single isomer, unassigned; enantiomer 2) [Example 39, (+)-4-fluoro-7-{3-[(6-fluoronaphthalen-1-yl)oxy]propyl}-2,3,14-trimethyl-13,13-dioxo-10,11,12,13,14,15-hexahydro-2H-13lambda^6-pyrazolo[3′,4′:4,5][1,2,8]thiadiazacycloundecino-[6,7,8-hi]indole-8-carboxylic acid (Enantiomer 2)], for which the IC50 was 1.4e-06 M in the data set with AMO-1 (setting [5]); 6.7e-07 M in the data set on SUDHL10 [1]; 5.4e-07 M in the data set with SUDHL5 [2] (72 hours); 3.3e-06 M and 5.1e-06 M in the data set with HMC-1-8 (72 hours); more than 20 µM against BCL-2. The 50% effective concentration (EC50) in the data set on SUDHL10 [3] (3 hours) was 0.73 µM; in the data set with SUDHL5 [4] (3 hours), 0.35 µM.

As for `Cc1c2c(nn1C)CN(C1CC1)S(=O)(=O)CCCn1c(C(=O)O)c(CCCOc3cccc4cc(F)ccc34)c3ccc(Cl)c-2c31` (single isomer, unassigned; enantiomer 1) [Example 42, (−)-4-chloro-14-cyclopropyl-7-{3-[(6-fluoro-1-naphthyl)oxy]propyl}-2,3-dimethyl-11,12,14,15-tetrahydro-2H,10H-pyrazolo[3′,4′:4,5][1,2,8]thiadiazacycloundecino[6,7,8-hi]indole-8-carboxylic acid 13,13-dioxide N-diethylamine salt (Enantiomer 1)], the IC50 in the data set with AMO-1 (setting [5]) is 2.6e-07 M and 4.7e-07 M; in the data set on SUDHL10 [1], 3.5e-07 M; in the data set on SUDHL5 [2] (72 hours), 2.7e-07 M; with HMC-1-8 (72 hours), 5.9e-06 M and 3.8e-06 M; against BCL-2 it was 12 µM. Moreover, the EC50 came to 0.29 µM with SUDHL10 [3] (3 hours) and 0.19 µM in the data set on SUDHL5 [4] (3 hours).

Regarding `Cc1c2c(nn1C)CN(C)S(=O)(=O)CCCn1c(C(=O)O)c(CCCOc3cccc4cc(F)ccc34)c3ccc(F)c-2c31` (single isomer, unassigned; enantiomer 1) [Example 38, (−)-4-fluoro-7-{3-[(6-fluoronaphthalen-1-yl)oxy]propyl}-2,3,14-trimethyl-13,13-dioxo-10,11,12,13,14,15-hexahydro-2H-13lambda^6-pyrazolo[3′,4′:4,5][1,2,8]thiadiazacycloundecino-[6,7,8-hi]indole-8-carboxylic acid (Enantiomer 1)], the 50% inhibitory concentration (IC50) is 2.9e-05 M in the data set with AMO-1 (setting [5]); 2.1e-05 M with SUDHL10 [1]; 7.8e-06 M in the data set on SUDHL5 [2] (72 hours); 2.7e-05 M in the data set with HMC-1-8 (72 hours); more than 20 µM on BCL-2. Moreover, the figures for the concentration giving a half-maximal response (EC50) with SUDHL10 [3] (3 hours) and in the data set on SUDHL5 [4] (3 hours) were 22 µM and 20 µM, respectively.

With `Cc1c2c(nn1C)C(CCN1CCOCC1)N(C)S(=O)(=O)CCCn1c(C(=O)O)c(CCCOc3cccc4cc(F)ccc34)c3ccc(Cl)c-2c31` (single isomer, unassigned; enantiomer 1) [Example 66, 4-chloro-7-{3-[(6-fluoronaphthalen-1-yl)oxy]propyl}-2,3,14-trimethyl-15-[2-(morpholin-4-yl)ethyl]-13,13-dioxo-10,11,12,13,14,15-hexahydro-2H-13lambda^6-pyrazolo[3′,4′:4,5][1,2,8]thiadiazacycloundecino[6,7,8-hi]indole-8-carboxylic acid (Enantiomer 1)], the IC50 is 3.7e-06 M in the data set with AMO-1 (setting [5]); 8.5e-06 M in the data set with SUDHL10 [1]; 4e-06 M in the data set with SUDHL5 [2] (72 hours); more than 3.3e-05 M in the data set with HMC-1-8 (72 hours); more than 20 µM against BCL-2. Moreover, the values for the concentration for a half-maximal effect (EC50) in the data set with SUDHL10 [3] (3 hours) and in the data set with SUDHL5 [4] (3 hours) were 6 µM and 3.5 µM, respectively.

`CCc1c2c(nn1C)CN(C)S(=O)(=O)CCCn1c(C(=O)O)c(CCCOc3cccc4cc(F)ccc34)c3ccc(Cl)c-2c31` (single isomer, unassigned; enantiomer 1) [Example 36, (+)-4-chloro-3-ethyl-7-{3-[(6-fluoronaphthalen-1-yl)oxy]propyl}-2,14-dimethyl-13,13-dioxo-10,11,12,13,14,15-hexahydro-2H-13lambda^6-pyrazolo[3′,4′:4,5][1,2,8]thiadiazacycloundecino-[6,7,8-hi]indole-8-carboxylic acid (Enantiomer 1)]: the concentration for half-maximal inhibition (IC50) in the data set on AMO-1 (setting [5]) was 4.5e-07 M and 5.3e-07 M; in the data set with SUDHL10 [1] it was 2.4e-07 M; in the data set on SUDHL5 [2] (72 hours), 1.4e-07 M; with HMC-1-8 (72 hours), 1.7e-06 M and 1.9e-06 M; against BCL-2, 18 µM. Also, the concentration for a half-maximal effect (EC50) in the data set on SUDHL10 [3] (3 hours) was 0.2 µM; with SUDHL5 [4] (3 hours), 0.085 µM.

As to `CCc1c2c(nn1C)CN(C)S(=O)(=O)CCCn1c(C(=O)O)c(CCCOc3cccc4cc(F)ccc34)c3ccc(F)c-2c31` (single isomer, unassigned; enantiomer 1) [Example 8, (+)-3-Ethyl-4-fluoro-7-{3-[(6-fluoronaphthalen-1-yl)oxy]propyl}-2,14-dimethyl-13,13-dioxo-10,11,12,13,14,15-hexahydro-2H-13λ^6-pyrazolo[3′,4′:4,5][1,2,8]thiadiazacycloundecino-[6,7,8-hi]indole-8-carboxylic acid (Enantiomer 1)], the 50% inhibitory concentration (IC50) with AMO-1 (72 hours, listed as 08, read-out: Antiproli AMO-1 [M] IC50) was 1.5e-06 M; in the data set with SUDHL10 [1], 1.1e-06 M; with SUDHL5 [2] (72 hours) it was 7.6e-07 M; with HMC-1-8 (72 h), 2.2e-06 M; against BCL-2, more than 20 µM; in the data set with MV-4-11, 1.18e-06 M. For the same compound, the EC50 in the data set on SUDHL10 [3] (3 hours) turned out to be 1 µM; in the data set on SUDHL5 [4] (3 hours), 0.58 µM.

In the case of `Cc1c2c(nn1C)C(CCN1CCOCC1)N(C)S(=O)(=O)CCCn1c(C(=O)O)c(CCCOc3cccc4ccccc34)c3cccc-2c31` (racemic) [Example 44, (rac)-2,3,14-trimethyl-15-[2-(rac)-(morpholin-4-yl)ethyl]-7-[3-(1-naphthyloxy)propyl]-11,12,14,15-tetrahydro-2H,10H-pyrazolo[3′,4′:4,5][1,2,8]thiadiazacycloundecino[6,7,8-hi]indole-8-carboxylic acid 13,13-dioxide (Mixture of Stereoisomers)], the concentration for half-maximal inhibition (IC50) is 4.4e-06 M with AMO-1 (Homo sapiens, AMO1, 72 h, read-out: Antiproli AMO-1 [M] IC50); 2.6e-06 M in the data set with SUDHL10 [1] (Homo sapiens, SU-DHL10, 5 h); 9.2e-07 M in the data set with SUDHL5 [2] (Homo sapiens, SU-DHL-5, 72 h); 1.2e-05 M with HMC-1-8 (72 h); more than 20 µM at BCL-2. Moreover, the EC50 in the data set on SUDHL10 [3] (Homo sapiens, SU-DHL10, 3 h) was found to be 1.7 µM; in the data set on SUDHL5 [4] (Homo sapiens, SU-DHL-5, 3 h), 1.1 µM.
